Assays:
Type in all cases: in vivo
[1] = system: Colla2^oim mouse model of type 1(+/−) OI; test: Fracture callus mineralization by MicroCT after stabilized midshaft femur fracture (osteotomy), type 1 OI mice
Protocol: (§1) After reaching skeletal maturity, 12 weeks old female mice underwent a stabilized midshaft femur fracture model via an osteotomy. Type 1 and Type 3 OI mice were treated twice a week for 5 weeks and 6 weeks respectively post fracture. Fracture callus mineralization was evaluated via quantification of high resolution MicroCT(scanco) images of the fracture callus.
After reaching skeletal maturity, 12 weeks old mice underwent a stabilized midshaft femur fracture model via an osteotomy. Type 1 OI mice were treated daily subcutaneously for 5 weeks post fracture. Fracture callus mineralization was evaluated via quantification of high resolution MicroCT(scanco) images of the fracture callus. In some instances, mice were dosed (daily) with 38 nmol/kg/d of Compound 4, Compound 3, or PBS vehicle control.
After reaching skeletal maturity 12 weeks old mice underwent a stabilized midshaft femur fracture model via an osteotomy. Type 1 OI mice were treated daily subcutaneously for 5 weeks post fracture. Fracture callus mineralization was evaluated via quantification of high resolution MicroCT(scanco) images of the fracture callus.
(§2) In vivo experiments were conducted in heterozygous and homozygous Colla2^oim (Type 1 OI (+/−) and Type 3 OI (−/−)) mice of both genders. After reaching skeletal maturity, 12 weeks old female and/or male mice underwent a stabilized midshaft femur fracture model via an osteotomy. OI mice were subcutaneously treated (with saline control or a compound provided herein, such as Ab46-D-Glu20) twice a week 5 or 6 weeks post fracture. Following a 5-week study in heterozygous mice and 6-week in homozygous mice, fracture callus mineralization/densities were measured using quantification of high resolution MicroCT(scanco) images of the fracture callus.

[2] = system: Colla2^oim mouse model of type 1(+/−) OI; test: 4-point bend to failure of the fractured femurs, 12 week old type 1 OI mice; settings: for increase in max load it takes a bone to fracture as compared to control: fractured femurs, daily subcutaneously 38 nmol/kg/d for 5 weeks, Type 1 OI mice treated (FIG. 18)
Protocol: (§3) FIGS. 13 and 14 show the impact of treatment with Compound 1 on bone fracture stiffness in a Colla2^oim mouse model of type 3(−/−) and type 1(−/+) osteogenesis Imperfecta. After reaching skeletal maturity, 12 weeks old female mice underwent a stabilized midshaft femur fracture model via an osteotomy and type 1 and Type 3 OI mice were treated twice a week for 5 and 6 weeks respectively post fracture. Fracture strength was evaluated via 4-point bend to failure of the fractured femurs. Modulus evaluates the stiffness of the femur during the biomechanical evaluation. A low stiffness is indicative of brittleness that leads to leads to future fractures. The improvement in stiffness that occurred in the fracture callus are indicative of a healthier bone that is less brittle and will be less likely to fracture in the future. In some instances, low bone stiffness is indicative of brittleness in the bone, such as being associated with higher risk of fracture. In some instances, higher bone stiffness is indicative of healthier bone, such as bone that is less brittle and less prone to fracture. In some instances, the majority of the compound localized into the fracture callus (e.g., due to the large amounts of exposed hydroxyapatite at the fracture site and that DE20 can bind to hydroxyapatite via chelation of the calcium component). In some instances, the elevated sites of resorption throughout the OI type 3 skeleton also had some moderate accumulation (e.g., which was responsible for the non-fracture skeletal improvements observed in FIGS. 13 and 14).
After reaching skeletal maturity, 12 weeks old female mice underwent a stabilized midshaft femur fracture model via an osteotomy. Type 1 and Type 3 OI mice were treated twice a week for 5 weeks and 6 weeks respectively post fracture. Fracture strength was evaluated via 4-point bend to failure of the fractured femurs. The contralateral untreated femurs are presented here to show the restoration to previous non-fracture strength during treatment. […] Further, Compound 1 increases the max load (in Newtons) it takes a bone to fracture in mice with Type 1 OI by approximately 70% (as compared to bone with saline). […]

[3] = system: Colla2^oim mouse model of type 1(+/−) OI; test: 4-point bend to failure of the non-fractured contralateral femurs, type 1 OI mice
Protocol: FIGS. 11 and 12 show the impact of treatment with Compound 1 on bone strength in a Colla2^0im mouse model of type!(+/−) OI. 12 week old female mice underwent a stabilized midshaft femur fracture model via an osteotomy. Type 1 OI mice were treated twice a week for 5 weeks post fracture. Bone strength was evaluated via 4-point bend to failure of the non-fractured contralateral femurs. The max load (FIG. 11) evaluates the max load the femur withstood prior to fracture in the biomechanical evaluation. Work to fracture (FIG. 12) evaluates the total amount of energy the femur adsorbed prior to fracture in the biomechanical evaluation. Bone targeted anabolic treatment dramatically improves bone strength in the contralateral femurs.
FIGS. 19 and 20 show the impact of treatment with Compound 3 on bone strength in a Colla2^oim mouse model of type 1(+/−) OI. 12 week old female mice underwent a stabilized midshaft femur fracture model via an osteotomy. Type 1 OI mice were treated daily subcutaneously for 5 weeks post fracture. Bone strength was evaluated via 4-point bend to failure of the non-fractured contralateral femurs. The max load (FIG. 19) evaluates the max load the femur withstood prior to fracture in the biomechanical evaluation. Work to fracture (FIG. 20) evaluates the total amount of energy the femur adsorbed prior to fracture in the biomechanical evaluation. Bone targeted anabolic treatment dramatically improves bone strength in the contralateral femurs.

[4] = system: Colla2^oim mouse model of type 3(−/−) OI; test: Fracture callus mineralization by MicroCT after stabilized midshaft femur fracture (osteotomy), type 3 OI mice
Protocol: In some instances, ability of an anabolic linked to a hydroxyapatite ligand to accelerate the repair of fractures in a Type 3 OI disease state was analyzed. Type 3 is the most severe non-lethal form of OI and experiences the most fractures in the human population. In some instances, Type 3 was modeled in a Colla2oim (−/−) mouse (e.g., which is a well-established model of OI Type 3), such as described elsewhere herein (e.g., see the examples). In some instances, the compound is distally administered and accumulates locally at a fracture site.
After reaching skeletal maturity, 12 weeks old female mice underwent a stabilized midshaft femur fracture model via an osteotomy. Type 3 OI mice were treated twice a week 6 weeks post fracture. Fracture callus mineralization was evaluated via quantification of high resolution MicroCT(scanco) images of the fracture callus.
as §1, §2

[5] = system: Colla2^oim mouse model of type 3(−/−) OI; test: 4-point bend to failure of the fractured femurs, type 3 OI mice
Protocol: After reaching skeletal maturity, 12 weeks old female mice underwent a stabilized midshaft femur fracture model via an osteotomy. Type 3 OI mice were treated twice a week for 6 weeks post fracture. Fracture strength was evaluated via 4-point bend to failure of the fractured femurs. The max load evaluates the max load the femur withstood prior to fracture in the biomechanical evaluation. The contralateral untreated femurs are presented here to show the restoration to previous non-fracture strength during treatment.
After reaching skeletal maturity, 12 weeks old female mice underwent a stabilized midshaft femur fracture model via an osteotomy. Type 3 OI mice were treated twice a week for 6 weeks post fracture. Fracture strength was evaluated via 4-point bend to failure of the fractured femurs. Work to fracture evaluates the total amount of energy the femur adsorbed prior to fracture in the biomechanical evaluation. The contralateral untreated femurs are presented here to show the restoration to previous non-fracture strength during treatment.
as §3
After reaching skeletal maturity, 12 weeks old female mice underwent a stabilized midshaft femur fracture model via an osteotomy. Type 1 and Type 3 OI mice were treated twice a week for 5 weeks and 6 weeks respectively post fracture. Fracture strength was evaluated via 4-point bend to failure of the fractured femurs. The contralateral untreated femurs are presented here to show the restoration to previous non-fracture strength during treatment. […] Further, Compound 1 increases the max load (in Newtons) it takes a bone to fracture in mice with Type 1 OI by approximately 70% (as compared to bone with saline).

[6] = system: Colla2^oim mouse model of type 1(+/−) OI; test: 4-point bend to failure of the fractured femurs, 6 week old pediatric type 1 OI mice; settings: 6 week old pediatric mice
Protocol: In some instances, OI affects children from birth and many of the fractures in an individual's life with OI occurring during adolescence. In some embodiments, the individual has pediatric OI. FIGS. 7 and 8 show the impact of treatment with Compound 1 on bone fracture strength in a Colla2^oim mouse model of type 1(+/−) OI. 6 week old pediatric Mice underwent a stabilized midshaft femur fracture model via an osteotomy. Type 1 OI mice were treated twice a week for 4 weeks post fracture. Fracture strength was evaluated via 4-point bend to failure of the fractured femurs. The max load (FIG. 7) evaluates the max load the femur withstood prior to fracture in the biomechanical evaluation. Work to fracture (FIG. 8) evaluates the total amount of energy the femur adsorbed prior to fracture in the biomechanical evaluation.

[7] = 12 weeks old mice, daily subcutaneously 38 nmol/kg/d for 5 weeks (FIG. 17)

AVSEHQLLHDKGKSIQDLIUGTFFLHHLIAEIHTAEnLATSEVSPNSeeeeeeeeeeeeeeeeeeee [Compound 3]
improved fracture callus mineralization as compared to the saline control [1, 7]: approximately 300%
increase in max load it takes a bone to fracture as compared to control [2]: approximately 100%
more max load to fracture than bone in control mice ([3]; contralateral femurs, daily subcutaneously 5 weeks (FIG. 19)): approximately 10%
higher work to fracture, non-fractured bone vs control mice ([3]; non-fractured contralateral femurs, daily subcutaneously 5 weeks (FIG. 20)): approximately 40%

AVSEHQLLHDKGKSIQDLRRRELLEKLLxKLHTAEIRATSEVSPNSeeeeeeeeeeeeeeeeeeee [Compound 1]
radiographic healing over the control ([4]; Colla2oim mouse model): significant improvement
improved fracture callus mineralization as compared to the saline control ([4]; Type 3 OI, 12 weeks old female mice, treated twice a week 6 weeks post fracture (FIG. 1, FIG. 4)): approximately 100%
median microCT images of fractured bones vs saline control ([4]; fractured bones of FIGS. 4 and 5 (Type 1 and Type 3 OI), composite of 20 microCT slices (FIG. 6)): healthier and denser bone
increase in bone volume fraction over the saline groups ([4]; mice administered compound vs saline groups): > 85%
improved fracture callus mineralization as compared to the saline control ([1]; 12 weeks old female mice, treated twice a week 5 weeks post fracture (FIG. 4)): approximately 50%
force required to refracture bone ([5]; Colla2oim mouse model, mechanical testing): dramatically higher force
more stiff (modulus) than fractured bone of control mice ([5]; Type 3 OI, fractured bone, twice a week 6 weeks (FIG. 13)): approximately 100%
increase in max load it takes a bone to fracture as compared to saline bone ([5]; Type 3 OI, fractured femur, twice a week 6 weeks (FIG. 2, FIG. 5)): approximately 300%
increase in work to fracture as compared to bone repaired with saline ([5]; Type 3 OI, fractured femur, twice a week 6 weeks (FIG. 3)): approximately 150%
more stiff (modulus) than non-fractured bone of control mice ([5]; Type 3 OI, treated fractured bone vs non-fractured control bone (FIG. 13)): approximately 50%
increase in work to fracture as compared to non-fractured bone ([5]; Type 3 OI, treated fractured femur vs non-fractured bone (FIG. 3)): approximately 70%
more max load to fracture than fractured bone in control mice ([2]; Type 1 OI, 12 week old female mice, twice a week 5 weeks (FIG. 10)): 80%
more max load to fracture than fractured bone in control mice ([2]; Type 1 OI, 12 week old male mice, twice a week 5 weeks (FIG. 9)): approximately 70%
increase in max load it takes a bone to fracture as compared to bone with saline ([2]; Type 1 OI, 12 weeks old female mice, twice a week 5 weeks (FIG. 5)): approximately 70%
more stiff (modulus) than fractured bone of control mice ([2]; Type 1 OI, fractured bone, twice a week 5 weeks (FIG. 14)): approximately 60%
differential response between sexes (fracture strength) ([2]; Type 1 OI, male vs female mice, twice a week 5 weeks (FIGS. 9, 10)): No differential response between sexes
more stiff (modulus) than unfractured bone of control mice ([2]; Type 1 OI, treated fractured bone vs unfractured control bone (FIG. 14)): approximately 10%
higher max load to fracture than saline control ([6]; twice a week 4 weeks (FIG. 7)): approximately 160%
higher work to fracture than saline control ([6]; twice a week 4 weeks (FIG. 8)): approximately 80%
more max load to fracture, non-fractured bone vs control mice ([3]; non-fractured contralateral femurs, twice a week 5 weeks (FIG. 11)): approximately 30%
higher work to fracture, non-fractured bone vs control mice ([3]; non-fractured contralateral femurs, twice a week 5 weeks (FIG. 12)): approximately 40%

eeeeeeeeee(AEEA)4 DLTIDDSYWYRI (EEEEEEEEEEXDLTIDDSYWYRI; D-Glu targeting ligand, 4 AEEA spacer; SITE 1..10 D-glutamic acid; SITE 11 2,2-amino ethoxy ethoxy acetic acid; REPEAT 11 repeated 4 times) [Compound 4, Ln2_P3 motif with N-terminally-attached 4-mini-PEG spacer and D-glutamic acid targeting ligand]
improved fracture callus mineralization as compared to the saline control [1, 7]: approximately 200%
increase in max load it takes a bone to fracture as compared to control [2]: approximately 200%

From patent US20250295725A1, “BONE TARGETED TREATMENT IN OSTEOGENESIS IMPERFECTA” (PURDUE RESEARCH FOUNDATION, priority 2022, published 2025)
